Laboratory results published in patent publication US8012956B2, “Tropane compounds” (Exelixis, Inc., priority 2007, dated 2011).
pIC50: −log10 of the molar value.

Target: HSP90 (Homo sapiens, UniProt P07900)
Test: HSP90 inhibition (HSP90 IC50)
Format: biochemical

SMILES	pIC50
COc1cccc(C(=O)N[C@H]2C[C@H]3CC[C@@H](C2)N3c2ccc(C(=O)NCc3cc(OC)c(OC)c(OC)c3)cn2)c1C [6-[3-endo-({[2-methyl-3-(methyloxy)phenyl]carbonyl}amino)-8-azabicyclo[3.2.1]oct-8-yl]-N-{[3,4,5-tris(methyloxy)phenyl]methyl}pyridine-3-carboxamide]	5.70 to 6.00
COc1cccc(CNC(=O)c2ccc(N3[C@@H]4CC[C@H]3C[C@@H](NC(=O)c3cccc(OC)c3C)C4)nc2)c1 [6-[3-endo-({[2-methyl-3-(methyloxy)phenyl]carbonyl}amino)-8-azabicyclo[3.2.1]oct-8-yl]-N-{[3-(methyloxy)phenyl]methyl}pyridine-3-carboxamide]	5.00 to 5.70
COc1cccc(C(=O)N[C@H]2C[C@H]3CC[C@@H](C2)N3c2ccc(C(=O)NCc3ccc(C4CCN(C)CC4)cc3)cn2)c1C [6-[3-endo-({[2-methyl-3-(methyloxy)phenyl]carbonyl}amino)-8-azabicyclo[3.2.1]oct-8-yl]-N-{[4-(1-methylpiperidin-4-yl)phenyl]methyl}pyridine-3-carboxamide]	> 6.30
COc1ccc(CNC(=O)c2ccc(N3[C@@H]4CC[C@H]3C[C@@H](NC(=O)c3cccc(OC)c3C)C4)nc2)cc1 [6-[3-endo-({[2-methyl-3-(methyloxy)phenyl]carbonyl}amino)-8-azabicyclo[3.2.1]oct-8-yl]-N-{[4-(methyloxy)phenyl]methyl}pyridine-3-carboxamide]	> 6.30
COc1cccc(C(=O)N[C@H]2C[C@H]3CC[C@@H](C2)N3c2ccc(C(=O)NCc3ccc(C(F)(F)F)cc3)cn2)c1C [6-[3-endo-({[2-methyl-3-(methyloxy)phenyl]carbonyl}amino)-8-azabicyclo[3.2.1]oct-8-yl]-N-{[4-(trifluoromethyl)phenyl]methyl}pyridine-3-carboxamide]	5.70 to 6.00
COc1cccc(C(=O)N[C@H]2C[C@H]3CC[C@@H](C2)N3c2ccc(C(N)=O)cn2)c1C [6-[3-endo-({[2-methyl-3-(methyloxy)phenyl]carbonyl}amino)-8-azabicyclo[3.2.1]oct-8-yl]pyridine-3-carboxamide]	6.00 to 6.30
COc1cccc(C(=O)N[C@H]2C[C@H]3CC[C@@H](C2)N3c2ccc(C(=O)NCc3cccc(N4CCN(C)CC4)c3)cn2)c1C [6-[3-endo-({[2-methyl-3-(methyloxy)phenyl]carbony}amino)-8-azabicyclo[3.2.1]oct-8-yl]-N-{[3-(4-methylpiperazin-1-yl)phenyl]methyl}pyridine-3-carboxamide]	> 6.30
CSc1cccc(C(=O)NC2CC3CCC(C2)N3c2ccc(C(=O)N[C@@H](C)c3ccc(N4CCN(C)CC4)cc3)cn2)c1C (stereo partly drawn) [6-[3-endo-({[2-methyl-3-(methylthio)phenyl]carbonyl}amino)-8-azabicyclo[3.2.1]oct-8-yl]-N-{(1S)-1-[4-(4-methylpiperazin-1-yl)phenyl]ethyl}pyridine-3-carboxamide]	6.00 to 6.30
COc1cccc(C(=O)N[C@H]2C[C@H]3CC[C@@H](C2)N3c2ccc(C(=O)NCc3ccccc3)cn2)c1CCCNC(C)C [6-[3-endo-({[2-{3-[(1-methylethyl)amino]propyl}-3-(methyloxy)phenyl]carbonyl}amino)-8-azabicyclo[3.2.1]oct-8-yl]-N-(phenylmethyl)pyridine-3-carboxamide]	5.70 to 6.00
Cc1c(C(=O)NC2CC3CCC(C2)N3c2ccc(C(=O)N[C@@H](C)c3ccc(N4CCN(C)CC4)cc3)cn2)cccc1N(C)C (stereo partly drawn) [6-[3-endo-({[3-(dimethylamino)-2-methylphenyl]carbonyl}amino)-8-azabicyclo[3.2.1]oct-8-yl]-N-{(1S)-1-[4-(4-methylpiperazin-1-yl)phenyl]ethyl}pyridine-3-carboxamide]	5.00 to 5.70
C=CCc1c(OC)cccc1C(=O)N[C@H]1C[C@H]2CC[C@@H](C1)N2c1ccc(C(=O)NCc2ccccc2)cn1 [6-[3-endo-({[3-(methyloxy)-2-prop-2-en-1-ylphenyl]carbonyl}amino)-8-azabicyclo[3.2.1]oct-8-yl]-N-(phenylmethyl)pyridine-3-carboxamide]	6.00 to 6.30
